These results are taken from paper PMC7290365, “Human Induced Pluripotent Stem Cell-Derived 3D-Neurospheres Are Suitable for Neurotoxicity Screening” (Cells, 2020).

Each structure is given as a SMILES string. Where a name gives a salt, the structure may show the parent alone. Read-outs that look alike come from different tables or passages of the source.

Data set [1] concerns hiPSC-derived 3D neurospheres. The data set can be described thus: cells. Particulars: for EC10 / EC25 / EC50: Homo sapiens, 72 h. It counts as cell-based, human. The procedure:
After thawing, NSCs (generated as detailed above) were cultured on POL/L (0.002%/1 µg/cm^2) coated plates (50,000 cells/cm^2). When reached 100% confluence NSCs were propagated with Accutase treatment and single-cell suspension was plated onto a low-adherent 96-well plate with 10,000 cells/well in NMM medium. […] Samples were collected at Day 0 (D0), Day 2 (D2), and weekly intervals from the end of the 1st week (D7) until the end of the 6th week (D14, D21, D28, D35, and D42).
Eleven well-known compounds were tested in 7 different concentrations to generate concentration-response curves. The tested compounds with the used concentrations are detailed in Table S3. […] In each assay plate, 4 technical replicates were applied from each sample and 3 biological replicate assays were run (n = 3). The 3D cell cultures were exposed to the toxicants for 72 h (exposure schemes are detailed in Figure 5A or Figure 6A or Figure 7A). Vehicle control was used as a regular medium supplemented with 0.1% DMSO.
ATP viability assay was performed with CellTiter-Glo® 3D Cell Viability Assay, according to the manufacturer’s protocol (Promega). Neurospheres were lysed with 100 μL CellTiter-Glo® 3D Reagent for 60 min at RT. Luminescence signal was recorded with a Thermo VarioScan Flash (Thermo Fisher Scientific) plate reader.
All results were analyzed using Prism 5 (GraphPad Software, La Jolla, CA, USA) and handled in Microsoft Office 2010 (Microsoft, Redmond, WA, USA) software. For normalization of the concentration response, the average values of positive control were used as 0% and the average of vehicle control served as 100%. Four parameter curve fitting methods were used to determine EC10 and EC50 values, where the data on the graphs represent the average of three biological replicates. The “n” value corresponds to the number of biological replicates for each tested concentration. Analysis of data is presented as the mean ± SEM. Significance of data was determined with paired T test for RT-qPCR (* p < 0.01) and with One-way ANOVA for concentration response (* p < 0.05; ** p < 0.01).

A further data set relates to humans. As to conditions: ref PubChem database (https://pubchem.ncbi.nlm.nih.gov/), cited from earlier work.
A further data set deals with rat. The arrangement: method as in PubChem database (https://pubchem.ncbi.nlm.nih.gov/). Particulars: ref PubChem database (https://pubchem.ncbi.nlm.nih.gov/), cited from earlier work.
Data set [2] relates to in vitro multicellular cytotoxicity. Particulars: multicellular cytotoxicity "comptox" data; ref EPA's Chemical dashboard (https://comptox.epa.gov/dashboard); cited from earlier work.
Setting [3] is: read-out: EC10 (cell viability).
[4] abbreviates: read-out: EC25 (cell viability).
Where [5] appears, read: read-out: EC50 (cell viability).
[6] abbreviates: D21 stage, 72 h exposure, investigated concentration range.
The mark [7] stands for this setting: D21 3D neurospheres, 72 h exposure, read-out: EC10 (cell viability) (converted).
Setting [8] is: D21 3D neurospheres, 72 h exposure, read-out: EC25 (cell viability) (converted).
The mark [9] stands for this setting: D21 3D neurospheres, 72 h exposure, read-out: EC50 (cell viability) (converted).
Where [10] appears, read: D28 3D neurospheres, 72 h exposure, read-out: EC10 (cell viability) (converted).
Where [11] appears, read: D28 3D neurospheres, 72 h exposure, read-out: EC25 (cell viability) (converted).
Where [12] appears, read: D28 3D neurospheres, 72 h exposure, read-out: EC50 (cell viability) (converted).
Setting [13] is: D42 3D neurospheres, 72 h exposure, read-out: EC10 (cell viability) (converted).
Where [14] appears, read: D42 3D neurospheres, 72 h exposure, read-out: EC25 (cell viability) (converted).
[15] abbreviates: D42 3D neurospheres, 72 h exposure, read-out: EC50 (cell viability) (converted).
Where [16] appears, read: D21 3D neurospheres, 72 h exposure.
The mark [17] stands for this setting: D28 3D neurospheres, 72 h exposure.
Where [18] appears, read: D42 3D neurospheres, 72 h exposure.

Consider `CC(=O)Nc1ccc(O)cc1` [Paracetamol, 4′-Hydroxyacetanilide], for which, in data set [1], the “EC50 (cell viability)” value is above 2 log µM and the “Effect on viability of 3D neurospheres (in words)” value (from here on “Effect on viability”) is reported as “minimal effect on the viability”. The concentration for an effect of 10% (EC10) in data set [1] (setting [3]) was above 100 µM. The EC25 in data set [1] (setting [4]) was above 100 µM. In addition, the EC50 in data set [1] (setting [5]) is above 100 µM. For the same compound, the “Acute overdose at which hepatic toxicity occurred in humans” value in the data set on humans is above 10 g. In addition, in the data set with rat (oral), the LD50 is given as 2400 mg/kg.
Regarding `Oc1c(Cl)cc(Cl)c(Cl)c1Cc1c(O)c(Cl)cc(Cl)c1Cl` [Hexachlorophene, 2,2′-Methylenebis(3,4,6-trichlorophenol)], the “Effect on viability” value in data set [1] (setting [6]) is on record as “had a strong effect on the viability, but did not kill all the cells”. Further, the figures for the EC10 in data set [1] (setting [7]), in data set [1] (setting [10]) and in data set [1] (setting [13]) were 0.631 µM, 0.257 µM and 0.0661 µM, respectively. The EC25 in data set [1] (setting [8]) is 3.39 µM; in data set [1] (setting [11]), 1.62 µM; in data set [1] (setting [14]) it was 0.457 µM. Moreover, the results for the concentration for a half-maximal effect (EC50) in data set [1] (setting [9]), in data set [1] (setting [12]) and in data set [1] (setting [15]) were 18.2 µM, 10.2 µM and 3.16 µM, respectively. In data set [2], the “In vitro cytotoxicity limit” value was 1.86 µM. In the data set on rat (oral), the LD50 is recorded as 66 mg/kg.
In the case of `COc1cc2c(c(OC)c1OC)-c1ccc(OC)c(=O)cc1[C@@H](NC(C)=O)CC2` [Colchicine, (S)-N-(5,6,7,9-Tetrahydro-1,2,3,10-tetramethoxy-9-oxobenzo[a]heptalen-7-yl)acetamide], the “Effect on viability” value in data set [1] (setting [6]) is “had a strong effect on the viability, but did not kill all the cells”. The EC10 was 0.000257 µM in data set [1] (read-out: EC10 (cell viability), D21 3D neurospheres, 72 h exposure) and 0.000282 µM in data set [1] (read-out: EC10 (cell viability), D42 3D neurospheres, 72 h exposure). For the same compound, the EC25 was 0.00912 µM in data set [1] (read-out: EC25 (cell viability), D21 3D neurospheres, 72 h exposure); 0.0129 µM in data set [1] (read-out: EC25 (cell viability), D28 3D neurospheres, 72 h exposure); 0.00575 µM in data set [1] (read-out: EC25 (cell viability), D42 3D neurospheres, 72 h exposure). Besides, the “In vitro cytotoxicity limit” value in data set [2] is given as 0.02 µM. For the same compound, the “Probable oral lethal dose in humans” value in the data set with humans (oral) is below 5 mg/kg.
For the compound `C=CC(N)=O` [Acrylamide, 2-Propenamide], in data set [1], the “EC10 (cell viability)” value is recorded as above 3.5 log µM and the “EC25 (cell viability)” value is reported as above 3.5 log µM.
Regarding `CO[C@H]1/C=C/O[C@@]2(C)Oc3c(C)c(O)c4c(O)c(c(/C=N/N5CCN(C)CC5)c(O)c4c3C2=O)NC(=O)/C(C)=C\C=C\[C@H](C)[C@H](O)[C@@H](C)[C@@H](O)[C@@H](C)[C@H](OC(C)=O)[C@@H]1C` [Rifampicin, 3-(4-Methylpiperazinyliminomethyl)rifamycin], in data set [1], the “EC50 (cell viability)” value was above 2 log µM and the “Effect on viability” value is recorded as “reduced the viability”. The EC10 in data set [1] (setting [3]) is above 100 µM. Besides, the EC25 in data set [1] (setting [4]) is above 100 µM. The EC50 in data set [1] (setting [5]) is above 100 µM. Further, in the data set with humans (oral), the “Probable lethal oral dose in humans” value was 14 to 60 g. Moreover, the LD50 in the data set on rat (route not given) is reported as 1570 mg/kg.
Turning to `[Cl][Hg][Cl]` [Mercury(II) chloride], in data set [1] (setting [16]), the “EC10 (cell viability)” value was 1.1 log µM, the “EC25 (cell viability)” value was found to be 1.5 log µM and the “EC50 (cell viability)” value turned out to be 1.87 log µM. Besides, the “Effect on viability” value in data set [1] (setting [6]) is recorded as “caused maximum cell death”. In data set [1] (setting [17]), the “EC10 (cell viability)” value is listed as 1.4 log µM, the “EC25 (cell viability)” value is 1.60 log µM and the “EC50 (cell viability)” value was 1.83 log µM. In data set [1] (setting [18]), the “EC10 (cell viability)” value was 1.34 log µM, the “EC25 (cell viability)” value was determined as 1.54 log µM and the “EC50 (cell viability)” value was found to be 1.74 log µM. The “In vitro cytotoxicity limit” value in data set [2] is recorded as 1.37 µM. For the same compound, in the data set on humans (oral), the “Probable oral lethal dose in humans” value is 5 to 50 mg/kg.
Turning to `COc1cccc2c1C(=O)c1c(O)c3c(c(O)c1C2=O)C[C@@](O)(C(=O)CO)C[C@@H]3O[C@H]1C[C@H](N)[C@H](O)[C@H](C)O1` [Doxorubicin, Doxorubicin hydrochloride], in data set [1] (setting [6]), the “Effect on viability” value was “caused maximum cell death”. Moreover, the EC10 in data set [1] (setting [7]) was 0.263 µM; in data set [1] (setting [10]), 2.14 µM; in data set [1] (setting [13]), 3.09 µM. Also, the EC25 in data set [1] (setting [8]) was 1.1 µM; in data set [1] (setting [11]), 5.25 µM; in data set [1] (setting [14]) it was 7.94 µM. Also, the EC50 was 4.68 µM in data set [1] (setting [9]), 12.9 µM in data set [1] (setting [12]) and 20.9 µM in data set [1] (setting [15]). For the same compound, the LD50 entry with rat (subcutaneous) was “• - Intercalating chemotherapy drug; • - inhibiting the movement of topoisomerase II, which leads to the blocking of both replication and transcription; and • - LD50: 21.8 mg/kg (rat, subcutaneous)”.
With `CC(C)Cc1ccc(C(C)C(=O)O)cc1` (stereo not drawn) [Ibuprofen, α-Methyl-4-(isobutyl)phenylacetic acid], in data set [1] (setting [16]), the “EC50 (cell viability)” value was above 2 log µM. Further, the “Effect on viability” value in data set [1] (setting [6]) was “did not decrease the viability”. The EC10 in data set [1] (setting [7]), in data set [1] (setting [10]) and in data set [1] (setting [13]) was above 100 µM throughout. Further, the EC25 in data set [1] (setting [8]), in data set [1] (setting [11]) and in data set [1] (setting [14]) was above 100 µM throughout. The EC50 in data set [1] (setting [9]), in data set [1] (setting [12]) and in data set [1] (setting [15]) was above 100 µM throughout. Besides, the “Effect on cell viability (in words)” value in data set [1] (investigated concentration range, D21, D28, D42 neurospheres) is “no effect on neuronal cell viability”. Moreover, the “Consumed dose at which overdose symptoms appear” value in the data set with humans (individuals) is reported as above 99 mg/kg.
For `C[n+]1ccc(-c2cc[n+](C)cc2)cc1` [Paraquat, 1,1′-Dimethyl-4,4′-bipyridinium dichloride hydrate], the “Effect on viability” value in data set [1] (setting [6]) is listed as “caused maximum cell death”. Also, the EC10 in data set [1] (setting [7]) was 14.1 µM; in data set [1] (setting [10]) it was 22.4 µM; in data set [1] (setting [13]), 12.3 µM. In addition, the figures for the EC25 in data set [1] (setting [8]), in data set [1] (setting [11]) and in data set [1] (setting [14]) were 33.1 µM, 46.8 µM and 27.5 µM, respectively. Moreover, the EC50 in data set [1] (setting [9]) is 77.6 µM; in data set [1] (setting [12]), 95.5 µM; in data set [1] (setting [15]), 61.7 µM. In the data set with humans (oral), the “Probable oral lethal dose in humans” value was “• - Herbicide; • - neurotoxic: occupational exposures leading to Parkinson’s disease [74]; • - widely investigated neurotoxic mechanism [75, 76]; and • - probable oral lethal dose in humans is 35 mg/kg”.

What is called EC10 is the concentration at which the effect reaches the 10% level. As usually defined, the EC25 is the point of the concentration-response curve where the effect stands at 25%. In general, EC50 refers to the concentration needed to bring the measured effect to its halfway point. What is called LD50 is the dose expected to kill half of the subjects tested.
